{
  "source": "patent US9089499B2",
  "about": "“Para-coumaric acid or para-hydroxycinnamic acid derivatives and their use in cosmetic or dermatological compositions” (BASF Beauty Care Solutions France S.A.S., priority 2005, dated 2015)",
  "key": {"fungal tyrosinase": {"system": "fungal tyrosinase", "test": "In vitro test of inhibition of isolated fungal tyrosinase (L-dopa, dopachrome OD 490 nm)", "assay_type": "biochemical", "settings": "490 nm", "text": "Tyrosinase catalyses the formation of L-dopaquinone and then of dopachrome from L-dopa. Now, dopachrome is a coloured compound that may be quantified by visible spectrophotometry at 490 nm. The use of an active agent capable of modifying the enzymatic activity will be reflected by a variation in the optical density at 490 nm. The to ratio of the rates of formation of dopachrome makes it possible to determine precisely the activations or inhibitions obtained with the various test molecules.\nThe sample to be tested is incubated in the presence of fungal tyrosinase (Sigma), for 5 minutes with stirring. L-Dopa (Sigma), a tyrosinase substrate, is incubated for 10 minutes in the absence of light, in the presence or absence of the test molecules. The calculation of the percentage of inhibition is performed by relating the test OD to the OD of the negative control without molecule.\nIn the context of this in vitro test, the p-coumaric acid derivatives were tested at final concentrations of 10^−4M and 10^−5M."}, "skin of rabbits": {"system": "skin of rabbits", "test": "Primary skin irritation in rabbits", "assay_type": "in vivo", "settings": "10% in a 0.5% xanthan gel; undiluted, 0.5 ml to the skin of rabbits", "method": "The preparations described above are applied without dilution at a dose of 0.5 ml to the skin of 3 rabbits according to the method recommended by the OCDE Directive concerning the study of “the acute irritant/corrosive effect on the skin”. The products are classified according to the criteria defined by the decree of 1/2/1982 published in the JORF of 21/02/82."}, "eye of rabbits": {"system": "eye of rabbits", "test": "Ocular irritation in rabbits", "assay_type": "in vivo", "settings": "10% in a 0.5% xanthan gel; pure, 0.1 ml single instillation, rabbit eye", "method": "The preparations described above were instilled pure, in a single application, at a rate of 0.1 ml, into the eye of 3 rabbits according to the method recommenced by the OCDE Directive No. 405 of 24 February 1987 concerning the study of the “acute irritant/corrosive effect on the eyes”."}, "guinea pigs": {"system": "guinea pigs", "test": "Skin sensitization potential in guinea pigs (Magnusson and Kligmann maximization test)", "assay_type": "in vivo", "settings": "10% in a 0.5% xanthan gel", "text": "The preparations described are subjected to the maximization test described by Magnusson and Kligmann, which protocol is in accordance with the OCDE guideline No. 406."}},
  "data": [
    {"smiles": "COc1cc(/C=C/C(=O)NCCc2ccc(O)c(O)c2)ccc1O", "note": "[Example 1, N-trans-feruloyldopamine]", "values": [
      {"measurement": "Inhibition of fungal tyrosinase, percentage of inhibition, Mean 10^−4M", "setting": "fungal tyrosinase; 10^−4M", "result": 9.18, "unit": "%"},
      {"measurement": "Inhibition of fungal tyrosinase, percentage of inhibition, Mean 10^−5M", "setting": "fungal tyrosinase; 10^−5M", "result": 0, "unit": "%"},
      {"measurement": "Primary skin irritation classification", "setting": "skin of rabbits", "result": "non-irritant to the skin"},
      {"measurement": "Ocular irritation classification", "setting": "eye of rabbits", "result": "non-irritant to the eyes"},
      {"measurement": "Skin sensitization classification", "setting": "guinea pigs", "result": "not sensitizing on contact with the skin"}
    ]}
  ]
}
